The values that follow come from patent EP1147080B1 (Wyeth Holdings Corporation, priority 1999, dated 2000).

One test concerns the target T1, MMP-1 (Homo sapiens, UniProt P03956).
T1 sequence (P03956 100-469): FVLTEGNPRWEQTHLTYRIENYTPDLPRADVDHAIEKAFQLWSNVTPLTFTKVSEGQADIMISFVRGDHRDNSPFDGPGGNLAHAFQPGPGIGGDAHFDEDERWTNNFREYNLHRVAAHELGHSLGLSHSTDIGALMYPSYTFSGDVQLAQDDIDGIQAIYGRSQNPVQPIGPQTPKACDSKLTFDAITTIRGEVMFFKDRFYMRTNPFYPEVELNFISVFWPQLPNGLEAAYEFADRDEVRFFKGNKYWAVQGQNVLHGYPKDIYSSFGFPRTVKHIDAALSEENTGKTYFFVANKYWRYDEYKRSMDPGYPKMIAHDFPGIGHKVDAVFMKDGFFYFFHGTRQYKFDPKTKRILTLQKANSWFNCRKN
Briefly: MMP-1 inhibition (thiopeptide or fluorescent peptide substrate). The settings on record: for inhibition at 10 µM: read-out: MMP1.

Test [1] addresses TNF-α converting enzyme (TACE) (Homo sapiens, UniProt P78536). Briefly: Test procedure for measuring TACE inhibition (fluorescent peptidyl substrate). In kind it is biochemical.
The target of a further test is MMP-13 (Homo sapiens, UniProt P45452). The test can be described thus: MMP-13 inhibition (thiopeptide or fluorescent peptide substrate). In kind it is biochemical. The following applies: read-out: MMP13; for inhibition at 10 µM: % @ 10µM per footnote a. The source says: Alternatively, a fluorescent peptide substrate is used.
The mark [2] stands for this setting: second table, IC50 (nM) per footnote a.

Chain of TNF-α converting enzyme (TACE) (P78536 215-824): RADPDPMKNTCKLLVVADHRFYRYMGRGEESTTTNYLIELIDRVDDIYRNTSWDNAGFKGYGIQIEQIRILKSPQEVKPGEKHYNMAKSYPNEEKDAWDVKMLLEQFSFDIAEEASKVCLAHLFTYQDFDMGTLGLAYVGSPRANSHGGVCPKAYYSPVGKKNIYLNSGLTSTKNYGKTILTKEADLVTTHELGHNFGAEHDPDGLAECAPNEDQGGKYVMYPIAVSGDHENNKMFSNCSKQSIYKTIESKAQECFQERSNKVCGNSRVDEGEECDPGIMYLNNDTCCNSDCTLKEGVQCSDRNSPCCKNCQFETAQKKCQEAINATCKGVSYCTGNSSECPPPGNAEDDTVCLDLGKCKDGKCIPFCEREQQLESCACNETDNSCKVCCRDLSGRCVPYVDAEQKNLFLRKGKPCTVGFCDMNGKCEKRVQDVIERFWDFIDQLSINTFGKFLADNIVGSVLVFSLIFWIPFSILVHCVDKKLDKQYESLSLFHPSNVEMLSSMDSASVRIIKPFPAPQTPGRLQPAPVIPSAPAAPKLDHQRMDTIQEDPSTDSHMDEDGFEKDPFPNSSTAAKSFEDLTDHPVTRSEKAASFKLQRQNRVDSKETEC

For the molecule `CC#CCOc1ccc([S+]([O-])C(CCCCNC(=O)c2ccc3ccccc3n2)C(=O)NO)cc1` (mixture of isomers) [Example 23, Quinoline-2-carboxylic acid [5-(4-but-2-ynyloxy-benzenesulfinyl)-5-hydroxycarbamoyl-pentyl]-amide], the figures for the IC50 (against MMP-1; in test [1] (Table 1)) were 3300 nM and 20.5 nM, respectively.
For the molecule `CC#CCOc1ccc([S+]([O-])[C@@H](C(=O)NO)c2ccc(Br)cc2)cc1` (single isomer, unassigned) [Example 87], at MMP-1, the inhibition at 10 µM worked out at 17%. Moreover, the IC50 in test [1] (setting [2]) worked out at 336 nM. Further, the inhibition at 1 µM at MMP-13 (% at 1 um (specified in cell)) is 33%.
On MMP-1, `CC#CCOc1ccc(OCC(=O)NO)cc1` [Example 11, 2-(4-But-2-ynyloxy-phenoxy)-N-hydroxy-acetamide] registered an IC50 of 10000 nM. That is a double-digit micromolar value.
At MMP-1, `CC#CCOc1ccc(CCCC(=O)NO)cc1` [Example 12, 4-(4-But-2-ynyloxy-phenyl)-N-hydroxy-butyramide] came in with an IC50 of 10000 nM.
Consider `CC#CCOc1ccc([S+]([O-])C(CCCCNC(=O)C2c3ccccc3Oc3ccccc32)C(=O)NO)cc1` (stereo not drawn) [Example 29, 9H-Xanthene-9-carboxylic acid [5-(4-but-2-ynyloxy-benzenesulfinyl)-5-hydroxycarbamoyl-pentyl]-amide], for which the concentration for half-maximal inhibition (IC50) was determined as 2000 nM at MMP-1 and 18.9 nM in test [1] (Table 1).
The matching figures for `CC#CCOc1ccc([S+]([O-])C(CCCCNC(=O)C(c2ccccc2)c2ccccc2)C(=O)NO)cc1` (stereo not drawn) [Example 30, 2-(4-But-2-ynyloxy-benzenesulfinyl)-6-diphenylacetylamino-hexanoic acid hydroxyamide]: 3300 nM and 20.1 nM.
`CC#CCOc1ccc(SC(CCCCNC(=O)CNC(=O)c2ccc3ccccc3n2)C(=O)NO)cc1` (stereo not drawn) [Example 44, Quinoline-2-carboxylic acid {[5-(4-but-2-ynyloxy-phenylsulfanyl)-5-hydroxycarbamoylpentylcarbamoyl]-methyl}-amide] displayed an IC50 in test [1] (Table 1) of 32.1 nM.
As for `CC#CCOc1ccc(SC(CCCCNC(=O)CNC(=O)CN2C(=O)c3ccccc3C2=O)C(=O)NO)cc1` (stereo not drawn) [Example 45, 2-(4-But-2-ynyloxy-phenylsulfanyl)-6-{2-[2-(1,3-dioxo-1,3-dihydro-isoindol-2-yl)-acetylamino]-acetylamino}-hexanoic acid hydroxyamide], half-maximal inhibition in test [1] (Table 1) (IC50) was put at 16.1 nM. This IC50 is about 2-fold lower than that of the molecule before.
For `CC#CCOc1ccc(SC(CCCCNC(=O)CNC(=O)c2ccccc2CCc2ccccc2)C(=O)NO)cc1` (stereo not drawn) [Example 46], the IC50 in test [1] (Table 1) came out at 84.2 nM. This IC50 is about 5.2-fold higher than that of the molecule before.
The same measure, in the same setting: then `CC#CCOc1ccc(SC(CCCCNC(=O)CNC(=O)c2cnc3ccccc3c2)C(=O)NO)cc1` (stereo not drawn) [Example 47, Quinoline-3-carboxylic acid {[5-(4-but-2-ynyloxy-phenylsulfanyl)-5-hydroxycarbamoyl-pentylcarbamoyl]-methyl}-amide], with 18.9 nM.
In test [1] (Table 1), `CC#CCOc1ccc(SC(CCCCNC(=O)CNC(=O)C2c3ccccc3Oc3ccccc32)C(=O)NO)cc1` (stereo not drawn) [Example 48, 9H-Xanthene-9-carboxylic acid {[5-(4-but-2-ynyloxy-phenylsulfanyl)-5-hydroxycarbamoylpentylcarbamoyl]-methyl}-amide] yielded an IC50 of 82.1 nM.
In test [1] (Table 1), `CC#CCOc1ccc(SC(CCCCNC(=O)CNC(=O)C(c2ccccc2)c2ccccc2)C(=O)NO)cc1` (stereo not drawn) [Example 49, 2-(4-But-2-ynyloxy-phenylsulfanyl)-6-(2-diphenylacetylamino-acetylamino)-hexanoic acid hydroxyamide] registered an IC50 of 53.8 nM.
For `CC#CCOc1ccc(SC(CCCCNC(=O)CNC(=O)c2nccc3ccccc23)C(=O)NO)cc1` (stereo not drawn) [Example 50, Isoquinoline-1-carboxylic acid {[5-(4-but-2-ynyloxy-phenylsulfanyl)-5-hydroxycarbamoylpentylcarbamoyl]-methyl}-amide], the IC50 in test [1] (Table 1) is 35.9 nM.
On the same count and under the same terms, then `CC#CCOc1ccc(SC(CCCCNC(=O)CNC(=O)c2cccn2C)C(=O)NO)cc1` (stereo not drawn) [Example 51, 1-Methyl-1H-pyrrole-2-carboxylic acid ([5-(4-but-2-ynyloxy-phenylsulfanyl)-5-hydroxycarbamoyl-pentylcarbamoyl]-methyl}-amide], with 22.4 nM; and `CC#CCOc1ccc(SC(CCCCNC(=O)CNC(=O)Cc2csc3ccccc23)C(=O)NO)cc1` (stereo not drawn) [Example 52], with 70.2 nM.
On to `CC#CCOc1ccc([S+]([O-])C(CCCCNC(=O)CNC(=O)c2cnc3ccccc3c2)C(=O)NO)cc1` (stereo not drawn) [Example 53], for which the values for the IC50 (against MMP-1; in test [1] (Table 1)) were 4000 nM and 15.2 nM, respectively.
For the molecule `CC#CCOc1ccc([S+]([O-])C(CCCCNC(=O)CNC(=O)c2ccc3ccccc3n2)C(=O)NO)cc1` (stereo not drawn) [Example 54], in test [1] (Table 1), inhibition was half-maximal at 27.2 nM (IC50).
Take `CC#CCOc1ccc([S+]([O-])C(CCCCNC(=O)CNC(=O)CN2C(=O)c3ccccc3C2=O)C(=O)NO)cc1` (stereo not drawn) [Example 55, 2-(4-But-2-ynyloxy-benzenesulfinyl)-6-[2-(1,3-dioxo-1,3-dihydro-isoindol-2-yl)-acetylammo]-hexanoic acid hydroxyamide]: in test [1] (Table 1), half-maximal inhibition (IC50) was put at 38.5 nM.
Take `CC#CCOc1ccc([S+]([O-])C(CCCCNC(=O)CNC(=O)c2ccccc2CCc2ccccc2)C(=O)NO)cc1` (stereo not drawn) [Example 56]: the values for the IC50 (on MMP-1; in test [1] (Table 1)) were 3900 nM and 21.9 nM, respectively.
As to `CC#CCOc1ccc([S+]([O-])C(CCCCNC(=O)CNC(=O)Cc2ccc(Cl)c(Cl)c2)C(=O)NO)cc1` (stereo not drawn) [Example 57], the values for the IC50 (against MMP-1; in test [1] (Table 1)) were 4600 nM and 24.4 nM, respectively.
For `CC#CCOc1ccc([S+]([O-])C(CCCCNC(=O)CNC(=O)CCCc2cccs2)C(=O)NO)cc1` (stereo not drawn) [Example 58] the same measures were 4600 nM and 20.1 nM.
Regarding `CC#CCOc1ccc([S+]([O-])C(CCCCNC(=O)CNC(=O)C2c3ccccc3Oc3ccccc32)C(=O)NO)cc1` (stereo not drawn) [Example 59], the IC50 was determined as 3400 nM against MMP-1 and 22.6 nM in test [1] (Table 1).
For `CC#CCOc1ccc([S+]([O-])C(CCCCNC(=O)CNC(=O)c2cccn2C)C(=O)NO)cc1` (stereo not drawn) [Example 61, 1-Methyl-1H-pyrrole-2-carboxylic acid {[5-(4-but-2-ynyloxy-benzenesulfinyl)-5-hydroxycarbamoylpentyl-carbamoyl]-methyl}-amide] the same measures were 5600 nM and 22.5 nM.
For `CC#CCOc1ccc(S(=O)(=O)C(CCCCNC(=O)CNC(=O)C(c2ccccc2)c2ccccc2)C(=O)NO)cc1` (stereo not drawn) [Example 62, 2-(4-But-2-ynyloxy-benzenesulfonyl)-6-(2-diphenylacetylamino-acetylamino)-hexanoic acid hydroxyamide], the IC50 in test [1] (Table 1) is 31.9 nM.
The same measure, in the same setting: then `CC#CCOc1ccc(S(=O)(=O)C(CCCCNC(=O)CNC(=O)CN2C(=O)c3ccccc3C2=O)C(=O)NO)cc1` (stereo not drawn) [Example 63, 2-(4-But-2-ynyloxy-benzenesulfonyl)-6-{2-[2-(1,3-dioxo-1,3-dihydro-isoindol-2-yl)-acetyl-amino]-acetylamino}-hexanoic acid hydroxyamide], with 16.1 nM; and `CC#CCOc1ccc(S(=O)(=O)C(CCCCNC(=O)CNC(=O)c2ccccc2CCc2ccccc2)C(=O)NO)cc1` (stereo not drawn) [Example 64, N-{[5-(4-But-2-ynyloxy-benzenesulfonyl)-5-hydroxycarbamoyl-pentylcarbamoyl]-methyl}-2-phenethyl-benzamide], with 42 nM; and `CC#CCOc1ccc(S(=O)(=O)C(CCCCNC(=O)CNC(=O)C2c3ccccc3Oc3ccccc32)C(=O)NO)cc1` (stereo not drawn) [Example 67, 9H-Xanthene-9-carboxylic acid {[5-(4-but-2-ynyloxy-benzenesulfonyl)-5-hydroxycarbamoyl-pentylcarbamoyl]-methyl}-amide], with 34.8 nM.
In turn, `CC#CCOc1ccc(S(=O)(=O)C(CCCCNC(=O)CNC(=O)c2nccc3ccccc23)C(=O)NO)cc1` (stereo not drawn) [Example 68, Isoquinoline-1-carboxylic acid {[5-(4-but-2-ynyloxy-benzenesulfonyl)-5-hydroxycarbamoyl-pentylcarbamoyl]-methyl}-amide] had an IC50 in test [1] (Table 1) of 21.2 nM.
In the case of `CC#CCOc1ccc(S(=O)(=O)C(CCCCNC(=O)CNC(=O)Cc2csc3ccccc23)C(=O)NO)cc1` (stereo not drawn) [Example 69], the IC50 in test [1] (Table 1) turned out to be 29.2 nM.
Same read-out and setting: then `CC#CCOc1ccc(S(=O)(=O)C(CCCCNC(=O)CNC(=O)Cc2c[nH]c3ccccc23)C(=O)NO)cc1` (stereo not drawn) [Example 70, 2-(4-But-2-ynyloxy-benzenesulfonyl)-6-[2-(2-1H-indol-3-yl-acetylamino)-acetylamino]-hexanoic acid hydroxyamide], with 88.1 nM.
With `CC#CCOc1ccc(SC(C(=O)NO)c2ccc(OCC)cc2)cc1` (stereo not drawn) [Example 100, 2-{[4-(2-butynyloxy)phenyl]sulfanyl}-N-hydroxy-2-(4-ethoxyphenyl) acetamide], the results for the inhibition at 10 µM at MMP-1 and on MMP-13 were 2% and 15%, respectively. In addition, in test [1] (setting [2]), inhibition was half-maximal at 100 nM (IC50).
With `CC#CCOc1ccc([S+]([O-])C(C(=O)NO)c2ccc(OCC)cc2)cc1` (stereo not drawn) [Example 101, 2-{[4-(2-Butynyloxy)phenyl]sulfinyl}-N-hydroxy-2-(4-ethoxyphenyl) acetamide], the inhibition at 10 µM on MMP-1 is 8%; on MMP-13 it was 51%. In test [1] (setting [2]), this molecule displayed a half-inhibitory concentration (IC50) of 76 nM.
Consider “N-[5-(4-But-2-ynyloxy-benzenesulfonyl)-5-hydroxycarbamoyl-pentyl]-2-phenethyl-benzamide [Example 34]”, for which, in test [1] (Table 1), the IC50 was determined as 147 nM.
